Read-outs that look alike come from different tables or passages of the source.

Data on 2 molecules can be found in patent publication US5750540A, “1,4-di-substituted piperidine derivatives” (Banyu Pharmaceutical Co., Ltd., priority 1995, dated 1998).

For assay [1], the system named is muscarinic M3 receptor. The assay is described as follows: in vivo. As to conditions: rat, i.v., Table 3. The procedure: (§1) Tests for antagonism against muscarinic M3 receptor (in vivo)
(§2) 1) Tests for bronchodilation in rats
(§3) Eight- to eleven-weeks-old male rats of the Sprague-Dawley strain, weighing 300-400 g, were anesthetized with urethane (750 mg/kg, i.p.) and a-chloralose (37.5 mg/kg, i.p.). A bronchus was intubated, and the right jugular vein was cannulated for drug administration. […] To evoke an increase in airway resistance, acetylcholine (50 μg/kg, i.v.) was administered to the animals. Mean values for the acetylcholine-induced increase in airway resistance as measured five minutes before (control) and five minutes after test compound administration were calculated and the results were expressed as percentages of the control response. The ID50 value was calculated from the dose-response curve of the test compound using probit analysis and defined as the drug dose that inhibited the acetylcholine-induced increase in airway resistance in the control group by 50 %.

A further assay addresses T1, muscarinic M2 receptors (Rattus norvegicus, UniProt P10980).
T1 construct: a membrane specimen from the heart was used as the membrane specimen; from tissue; host or cells: rat heart membranes (SD rat)
T1 sequence (P10980 1-466): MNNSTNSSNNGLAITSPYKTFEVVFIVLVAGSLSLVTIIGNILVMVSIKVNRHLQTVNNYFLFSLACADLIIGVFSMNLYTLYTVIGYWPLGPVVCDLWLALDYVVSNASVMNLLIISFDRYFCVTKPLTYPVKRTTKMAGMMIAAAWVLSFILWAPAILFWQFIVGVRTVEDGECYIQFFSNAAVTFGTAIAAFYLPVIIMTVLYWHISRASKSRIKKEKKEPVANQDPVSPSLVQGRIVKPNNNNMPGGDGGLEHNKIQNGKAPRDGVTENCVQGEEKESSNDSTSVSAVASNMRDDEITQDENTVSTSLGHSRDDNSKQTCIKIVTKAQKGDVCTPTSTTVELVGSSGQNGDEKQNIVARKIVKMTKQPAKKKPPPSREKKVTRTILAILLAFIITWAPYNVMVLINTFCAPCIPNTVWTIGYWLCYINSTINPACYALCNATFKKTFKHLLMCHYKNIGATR
The assay is described as follows: Bradycardia in rats (acetylcholine-induced). As to conditions: iv, 5 min, i.v., 5 minutes after administration, 50% inhibition of acetylcholine-induced bradycardia, read-out: Bradycardia ID50. Type of assay: in vivo. Here is the method: 6) Tests for bradycardia in rats
Eight- to eleven-weeks-old male rats of the Sprague-Dawley strain, weighing 300-400 g, were anesthetized with urethane (750 mg/kg, i.p.) and α-chloralose (37.5 mg/kg, i.p.). A bronchus was intubated, and the right jugular vein was cannulated for drug administration. […] To evoke bradycardia, acetylcholine (50 μg/kg, i.v.) was administered to the animals. Mean values for the acetylcholine-induced decrease in heart rate as measured five minutes before (control) and five minutes after test compound administration were calculated and the results were expressed as percentages relative to the control response. The ID50 value was calculated from the dose-response curve of the test compound using probit analysis and defined as the drug dose that inhibited the acetylcholine-induced bradycardia in the control group by 50%.

Assay [2] has as its target T2, muscarinic M3 receptor (Rattus norvegicus, UniProt P08483). The assay is described as follows: Intravesical bladder pressure in rats. Format: in vivo. The arrangement: from tissue. Particulars: i.v., 25% inhibition of peak intravesical bladder pressure. Here is the method: as §1
4) Tests for intravesical bladder pressure in rats
These tests were performed according to the method of Maggi et al. (Drug Dev. Res. 10: 157-170, 1987). Briefly, eight- to ten-weeks-old male rats of the Sprague-Dawley strain, weighing 330-370 g, were anesthetized by subcutaneous administration of urethane (1 g/kg) and α-chloralose (50 mg/kg), and the right jugular vein was cannulated for drug administration. The body temperature was kept constant by means of a heating pad maintained at 37° C. Through a midline incision of the abdomen, the urinary bladder was exposed and emptied of urine by the application of a slight manual pressure. A 20-gauge needle was inserted through the apex of the bladder dome by 3-4 mm into its lumen. The needle had previously been connected to a pressure transducer and an infusion pump by means of polyethylene tubing and the whole system filled with saline. After a 30-minutes equilibration period at zero volume, saline was infused (2.8 ml/hr) until a coordinated sustained contraction, reflecting the peak intravesical bladder pressure, occured. The bladder was then emptied manually and allowed to rest for five minutes. PvesP was defined as the difference between the maximum and resting bladder pressures. This procedure was repeated at least five times and the evaluation of a test compound was carried out in the animals in which a stable peak intravesical bladder pressure was recorded. The drug potency (ID25 ) was determined after intravenous administration of the test compound during the rest period. Five minutes after drug administration, the infusion of saline was started to induce micturition contraction and the peak intravesical bladder pressure was recorded. The depression in peak intravesical bladder pressure was expressed as a percent of the control peak intravesical bladder pressure observed before administration of the test compound. The ID25 value, calculated by probit analysis, was defined as the drug dose that inhibited the control peak intravesical bladder pressure by 25%.

The target of assay [3] is T2, muscarinic M3 receptor. The assay is described as follows: Intestinal propulsion in rats (charcoal meal). The arrangement: from tissue. Type of assay: in vivo. Particulars: i.v., 15% inhibition of intestinal propulsion. Here is the method:
as §1
5) Tests for intestinal propulsion in rats
Five- to seven-weeks-old male rats of the Sprague-Dawley strain were fasted overnight. A test compound was administered intravenously to the animals. Five minutes later, 1 ml per animal of a 5% charcoal suspension was administered orally. Thirty minutes after administration of the charcoal meal, the rats were sacrificed by decapitation, and the gastrointestinal tract was removed. The distance from the pylorus to the point of arrival of the charcoal meal was measured and the transportation rate was calculated. The ID15 value was calculated from the dose-response curve using probit analysis and defined as the drug dose that inhibited intestinal propulsion in the control group by 15%.

The target of assay [4] is T2, muscarinic M3 receptor. The assay is described as follows: in vivo. Further details: from tissue; host or cells: living rat, airways. As to conditions: iv, 5 min, read-out: Airway contraction ID50. Here is the method:
as §1, §2, §3

Assay [5] deals with T2, muscarinic M3 receptor. The assay is described as follows: in vivo. The arrangement: from tissue; host or cells: living rat, airways. Particulars: iv, read-out: Salivary secretion ID50. Here is the method:
as §1
2) Tests for salivary secretion in rats
Five- to seven-weeks-old male rats of the Sprague-Dawley strain were anesthetized with sodium pentobarbital (65 mg/kg, i.p.), and a cannula was inserted into the right jugular vein for purposes of drug administration. A test compound was administered intravenously. Five minutes later, carbachol (10 μg/kg, i.v.) was administered to evoke salivary secretion. For each rat, saliva collection was started immediately after carbachol administration and continued for ten minutes. This was carried out by inserting glass capillaries (Drummond, 100 μl) into the oral cavity of the rat at intervals of one minute. The amount of collected saliva was determined on the assumption that a length of 75 mm of the glass capillary corresponded to 100 μl. Physiological saline was used in the control group. The ID50 value was calculated from the dose-response curve of the test compound using probit analysis and defined as the drug dose that inhibited the carbachol-induced salivation in the control group by 50%.

Assay [6] concerns the target T2, muscarinic M3 receptor. The assay is described as follows: in vivo. The arrangement: from tissue; host or cells: living rat, airways. As to conditions: iv, read-out: Mydriasis ED50. Here is the method:
as §1
3) Tests for mydriasis in rats
Five- to seven-weeks-old male rats of the Sprague-Dawley strain were anesthetized with pentobarbital (65 mg/kg, i.p.), and a cannula was inserted into the right jugular vein for purposes of drug administration. By using a graduated scale (pulilometer), pupillary responses to drugs were measured to the nearest 0.1 mm at the point of the greatest diameter. […] Responses were expressed as percentages of the maximal increase in pupil diameter induced by administration of atropine (30 μg/kg, i.v.). The ED50 value was calculated from the dose-response curve of the test compound using probit analysis and defined as the drug dose that induced 50% of the maximal response.

T2 sequence (P08483 whole entry): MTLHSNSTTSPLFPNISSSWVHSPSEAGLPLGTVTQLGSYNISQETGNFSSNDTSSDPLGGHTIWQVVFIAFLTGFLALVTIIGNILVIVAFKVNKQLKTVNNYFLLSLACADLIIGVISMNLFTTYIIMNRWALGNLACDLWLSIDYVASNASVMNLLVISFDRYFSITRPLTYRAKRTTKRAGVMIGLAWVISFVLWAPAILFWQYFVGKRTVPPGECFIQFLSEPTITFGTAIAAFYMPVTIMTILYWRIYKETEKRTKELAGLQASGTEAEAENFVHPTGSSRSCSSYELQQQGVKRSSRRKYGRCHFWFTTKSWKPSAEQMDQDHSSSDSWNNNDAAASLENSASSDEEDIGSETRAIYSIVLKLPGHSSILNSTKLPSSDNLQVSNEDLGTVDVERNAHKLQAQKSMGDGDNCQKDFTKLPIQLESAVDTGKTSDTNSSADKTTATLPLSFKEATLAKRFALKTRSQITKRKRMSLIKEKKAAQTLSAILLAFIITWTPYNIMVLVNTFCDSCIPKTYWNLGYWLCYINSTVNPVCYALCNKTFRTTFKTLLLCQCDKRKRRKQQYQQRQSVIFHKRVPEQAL

For the molecule `CN1[C@@H]2CC[C@H]1C[C@@H](OC(=O)C(CO)c1ccccc1)C2` (stereo partly shown) [Atropine], in the assay on muscarinic M3 receptor [1], the “Activity with respect to all of the six types of responses (in words)” value is reported as “potent activities”. The “Selectivity over the six types of responses (in words)” value with muscarinic M3 receptor [1] is reported as “non-selective”. The ED50 on muscarinic M2 receptors amounted to 3.7 µg/kg; on muscarinic M3 receptor [4], 4.3 µg/kg; on muscarinic M3 receptor [5], 2.2 µg/kg; at muscarinic M3 receptor [6], 0.018 mg/kg. On muscarinic M3 receptor [2], the “Urinating contraction ID25” value is listed as 0.027 mg/kg i.v. For the same molecule, the “Enterokinesis ID15” value at muscarinic M3 receptor [3] came out at 0.019 mg/kg i.v.

`CC(C)[N+]1(C)[C@@H]2CC[C@H]1C[C@@H](OC(=O)C(CO)c1ccccc1)C2` (stereo partly shown) [Ipratropium]: the “Activity with respect to all of the six types of responses (in words)” value with muscarinic M3 receptor [1] is on record as “potent activities”. Also, the “Selectivity over the six types of responses (in words)” value in the assay on muscarinic M3 receptor [1] is recorded as “non-selective”. The ED50 on muscarinic M2 receptors worked out at 1.8 µg/kg; at muscarinic M3 receptor [4] it was 1.5 µg/kg; on muscarinic M3 receptor [5] it was 1.8 µg/kg; at muscarinic M3 receptor [6], 0.0041 mg/kg. At muscarinic M3 receptor [2], the “Urinating contraction ID25” value was 0.0048 mg/kg i.v. For the same molecule, at muscarinic M3 receptor [3], the “Enterokinesis ID15” value is 0.004 mg/kg i.v.
